Source: patent publication US10441537B2, “Unit doses, aerosols, kits, and methods for treating heart conditions by pulmonary administration” (InCarda Therapeutics, Inc., priority 2017, dated 2019)
Like-named read-outs stand apart in the source and are kept apart here.

Tests used:
[1] = system: healthy volunteers; details: in vivo
Description: (§1) 3 cohorts of subjects, in total 34 healthy adult volunteers, were recruited for Part A study.
(§2) Part B was an open label non-randomized crossover in a cohort of 6 evaluable healthy adult volunteers.
Adverse events were monitored and recorded.

[2] = Phase 1 study: venous plasma pharmacokinetics; format: in vivo, human; details: for Tmax / Cmax / AUC(0-t) / half-life: venous plasma; for Dist. t1/2α, mean (CV %): both; for half-life: read-out: Elim. t1/2, mean (CV %) (converted)
Procedure: In this study, for inhalation delivery of flecainide, the estimated total lung doses (eTLDs) were calculated to account for losses of flecainide in the inhalation device and losses of flecainide in subjects' mouth and throat. eTLD was thereby used to denote the dose that actually reached the lungs of the subjects. By design, in all nebulizers there can be a residual volume or mass of drug solution that stays in the nebulizer, and there can also be a percentage of the aerosol caught by subject's throat and mouth. For instance, in this study, it was estimated that 30% of the aerosol was lost in subject's throat and mouth.

[3] = physchem; details: water
[4] = system: healthy volunteers; details: in vivo, iv
Procedure: as §1, §2
In addition, the effects of changing posture from semi-recumbent to seated upright, vice-versa and during inhalation on HR and BP were assessed (Cohort 5).

[5] = system: induced atrial fibrillation; test: ACh and burst-pacing-induced AF duration in pigs (Example 5); format: in vivo; details: IT 1.5 mg/kg
Procedure: At one min after intrapericardial administration of ACh (1 ml of 100 mM), burst pacing was performed to initiate AF in the control cohort (FIG. 60). In the experimental cohort, after ACh and burst-pacing-induced AF, a stable period of 2 min of AF was allowed (FIG. 60). […] Table 12; FIG. 61).

[6] = system: healthy volunteers; test: Phase 1 study: lung spirometry tests; format: in vivo, human
Procedure: Pulmonary safety was assessed by performing lung spirometry tests and measuring peripheral oxygen saturation (SpO2%) prior to dosing and at various times after completion of the inhalation. Lung spirometry tests evaluated all lung function parameters, including forced vital capacity (FVC), forced expiratory volume in 1 second (FEV1), peak expiratory flow (PEF), and forced expiratory flow at 25% and 75% intervals (FEF25-75). Auscultation and respiration rate were also measured prior to dosing and at various times after inhalation. Chest x-rays were performed on subjects before and after flecainide inhalation.

[7] = IV 2 mg/Kg, n=3, package insert; cited from earlier work
[8] = system: induced atrial fibrillation; test: Conversion of phenylephrine/burst-pacing-induced AF in anesthetized beagle dogs (Example 7); format: in vivo; details: for Time to NSR: IT
Procedure: The study was carried out in anesthetized healthy adult beagle dogs with induced AF. Acute AF was induced using the combination of phenylephrine ([…]), to increase heterogeneity of atrial refractory periods via increased loading and through a baroreceptor-mediated increase in parasympathetic efferent activity, and right atrial burst pacing (40-50 Hz for ˜15 min). The AF induced using this method was, in general, stable for more than 30 mins.
The cardiac rhythm was monitored prior to, during AF, and up to 10 min post-dosing and/or until conversion to NSR.

[9] = system: anesthetized Yorkshire pigs; test: PD responses (HR, MAP, ECG intervals) in anesthetized Yorkshire pigs, IV vs IT; format: in vivo
Procedure: All catheters were positioned under fluoroscopic guidance. […] Data are reported as means+ SEM. Statistical analyses were performed using the SAS system (9.4) to apply ANOVA with a post-hoc Dunnett's test. Statistical significance was assumed at p<0.05.

Structure (SMILES): O=C(NCC1CCCCN1)c1cc(OCC(F)(F)F)ccc1OCC(F)(F)F (stereo not drawn) [flecainide, flecainide acetate]
- Adverse Event: Cough ([1]; both, human): 1
- Adverse Event: Lightheadedness ([1]; both, human): 1
- study-drug related Cough ([1]; both, human): 3 events in 3/25 subjects (12%)
- study-drug related Dry mouth ([1]; both, human): 3 events in 3/25 subjects (12%)
- study-drug related Dysgeusia ([1]; both, human): 2 events in 2/25 subjects (8%)
- study-drug related Dyspnoea (shortness of breath) ([1]; both, human): 4 events in 4/25 subjects (16%)
- study-drug related Oropharyngeal discomfort ([1]; both, human): 10 events in 10/25 subjects (40%)
- study-drug related dizziness ([1]; both, human): 3 events in 3/25 subjects (12%)
- study-drug related headache ([1]; both, human): 3 events in 2/25 subjects (8%)
- average events per subject ([1]; human): 2
- probably study-drug related oropharyngeal discomfort, subjects ([1]; human): 4
- study-drug related paresthesia oral ([1]; human): 3 events in 3 subjects
- average events per subject ([1]; human, iv): 7
- hypotension (systolic BP) for which the IV infusion had to be interrupted ([1]; human, iv): < 65 mmHg
- severe and moderate intensity AEs probably related to the study drug ([1]; human, iv): 1 severe and 2 moderate intensity AEs
- study-drug related application site coldness ([1]; human, iv): 2 occurrences in 2 subjects
- study-drug related dizziness ([1]; human, iv): 6 events in 6 subjects
- study-drug related headache ([1]; human, iv): 5 events in 5 subjects
- study-drug related peripheral coldness, palpitations, and chest discomfort ([1]; human, iv): each occurring 2 times 1 subject
- Number of Moderate or Severe TEAEs ([1]; human, iv, 2 mg/kg): 4
- Number of Related TEAEs ([1]; human, iv, 2 mg/kg): 35
- Number of Related, Moderate or Severe TEAEs ([1]; human, iv, 2 mg/kg): 4
- Number of SAEs ([1]; human, iv, 2 mg/kg): 0
- Number of Subjects with at least one Moderate or Severe TEAE ([1]; human, iv, 2 mg/kg): 2 subjects (29%) n (%)
- Number of Subjects with at least one TEAE ([1]; human, iv, 2 mg/kg): 7 (100) n (%)
- Number of Treatment-Emergent Adverse Events ([1]; human, iv, 2 mg/kg): 49
- TEAE: Chest discomfort ([1]; human, iv, 2 mg/kg): 3 such events also occurred in 1 subject n (%) [events]
- TEAE: Dizziness ([1]; human, iv, 2 mg/kg): 6 events in 6/7 subjects, 86% n (%) [events]
- TEAE: Headache ([1]; human, iv, 2 mg/kg): 6 events in 5/7 subjects, 71% n (%) [events]
- remaining study-drug related events (cough, dysphonia, dyspnoea, oral hypoesthesia, chest discomfort) ([1]; human, po): once in 1 subject each
- serious adverse events [1]: No serious adverse events were reported
- tolerability [1]: well tolerated
- Number of SAEs ([1]; iv, 2 mg/kg): no SAEs reported
- Tmax, median (min, max) ([2]; IV 2 mg/Kg over 10 min, Cohort 5, n=6, 2 mg/kg): 1 (0, 60) min after EOI
- Elim. t1/2β, mean (CV %) ([2]; Inhaled 20 mg, n=6): 9.87 (25) hours
- Tmax, median (min, max) ([2]; Inhaled 30 mg, Cohort 5, n=6): ≤ 1 min after EOI
- Tmax, median (min, max) ([2]; Inhaled 30 mg, Cohort 5, n=6, listed as Flecainide): 0.5 (0, 1) min after EOI
- Elim. t1/2β, mean (CV %) ([2]; Inhaled 40 mg, n=8 (post-hoc)): 9.0 (24) hours
- Elim. t1/2β, mean (CV %) ([2]; Inhaled 60 mg, n=7 (post-hoc)): 12.0 (14) hours
- Tmax ([2]; both sexes, human, inhaled or intranasal, 20 mg, Inhaled 20 mg, n=6, from end of inhalation, read-out: Tmax, median (min, max) (converted)): 1 min
- Cmax ([2]; both sexes, human, inhaled or intranasal, 20 mg, Inhaled 20 mg, n=6, read-out: Cmax, arithmetic mean (CV %)): 95.1 ng/mL
- Cmax ([2]; both sexes, human, inhaled or intranasal, 40 mg, Inhaled 40 mg, n=8 (post-hoc), read-out: Cmax, mean (CV %)): 173 ng/mL
- Tmax ([2]; both sexes, human, inhaled or intranasal, 40 mg, Inhaled 40 mg, n=8 (post-hoc), read-out: Tmax, median (min, max) (converted)): 1 min
- Cmax ([2]; both sexes, human, inhaled or intranasal, 60 mg, Inhaled 60 mg, n=7 (post-hoc), read-out: Cmax, mean (CV %)): 232 ng/mL
- Tmax ([2]; both sexes, human, inhaled or intranasal, 60 mg, Inhaled 60 mg, n=7 (post-hoc), read-out: Tmax, median (min, max) (converted)): 1 min
- Tmax ([2]; both sexes, human, inhaled or intranasal, 60 mg, two subjects each of 40 and 60 mg eTLD cohorts, after the end of inhalation, read-out: Tmax of the four subjects excluded post hoc): 20 to 240 min
- AUC(0-t) ([2]; both sexes, human, inhaled or intranasal, Inhaled 20 mg, n=6, read-out: AUCLast, mean (CV %)): 421 ng·h/mL
- AUC(0-t) ([2]; both sexes, human, inhaled or intranasal, Inhaled 40 mg, n=8 (post-hoc), read-out: AUCLast, mean (CV %)): 685 ng·h/mL
- AUC(0-t) ([2]; both sexes, human, inhaled or intranasal, Inhaled 60 mg, n=7 (post-hoc), read-out: AUCLast, mean (CV %)): 946 ng·h/mL
- Cmax ([2]; both sexes, human, inhaled, 40 mg, 40 mg eTLD cohort, read-out: Cmax of the two excluded subjects): 70.9 ng/mL
- Cmax ([2]; both sexes, human, inhaled, 60 mg, 60 mg eTLD cohort, read-out: Cmax of the two excluded subjects): 82.3 ng/mL
- Dist. t1/2α, mean (CV %) ([2]; human, in vivo, inhaled or intranasal, 20 mg): 3.86 (34) min
- Dist. t1/2α, mean (CV %) ([2]; human, in vivo, inhaled or intranasal, 40 mg): 4.19 (39) min
- Dist. t1/2α, mean (CV %) ([2]; human, in vivo, inhaled or intranasal, 60 mg): 3.47 (17) min
- estimated t1/2α ([2]; human, in vivo): 3.5 to 4.2 min
- Cmax ([2]; human, inhaled or intranasal, 30 mg, Inhaled 30 mg, Cohort 5, n=6, read-out: Cmax, mean (CV %)): 120 ng/mL
- half-life ([2]; human, inhaled or intranasal, 30 mg, Inhaled 30 mg, Cohort 5, n=6): 606 min
- AUC(0-t) ([2]; human, inhaled or intranasal, Inhaled 30 mg, Cohort 5, n=6, read-out: AUClast, mean (CV %)): 487 ng·h/mL
- Cmax ([2]; human, iv, 2 mg/kg, IV 2 mg/Kg, Cohort 5, n=6, read-out: Cmax, mean (CV %)): 749 ng/mL
- half-life ([2]; human, iv, 2 mg/kg, IV 2 mg/Kg, Cohort 5, n=6): 600 min
- AUC(0-t) ([2]; human, IV 2 mg/Kg, Cohort 5, n=6, read-out: AUClast, mean (CV %)): 3050 ng·h/mL
- venous plasma concentration-time curves, inhaled vs IV ([2]; inhaled 30 mg eTLD vs IV 2 mg/kg (b559: IV normalized to 30 mg), Cohort 5, 2 mg/kg): near-identical
- dose proportionality of venous plasma concentrations ([2]; inhaled 20, 30 or 40 mg eTLD): near dose proportionality
- solubility [3]: ~30 mg/mL
- decrease in systolic pressure [4]: ≤ 18 mmHg
- maximal increase in HR [4]: 7 bpm
- transient decrease in systolic pressure [4]: 9 mmHg
- HR ([4]; 2 mg/kg): An increase in HR was observed
- systolic and diastolic BP ([4]; 2 mg/kg): Decreases in systolic and diastolic BP were observed
- recurrence of AF after restoration of sinus rhythm ([5]; 30-min window of observation): no recurrence of AF occurred
- AF duration ([5]; Pig 236 (No drug 10)): 4 min
- AF duration ([5]; Pig 238 (No drug 12)): 3 min
- AF duration ([5]; Pig 239 (No drug 12)): 3 min
- FEF25-75, Mean ([6]; 20 mg eTLD, 24 hours Post-dose): 5.40 L/s
- FEF25-75, Mean ([6]; 40 mg eTLD, 12 hours Pre-dose): 5.00 L/s
- FEF25-75, Mean ([6]; 40 mg eTLD, 24 hours Post-dose): 4.80 L/s
- standard lung spirometry measurements (FEV1, PEF, FVC, FEF 25-75) and peripheral O2 saturation ([6]; Cohorts 1, 2, 3 and 5): normal before and after
- Tmax [7]: 10.0 min after EOI
- Time to NSR ([8]; Animal 002, dose 0.75 (0.25 + 0.5) mg/kg): 52 s
- Time to NSR ([8]; Animal 003, dose 0.75 mg/kg): 12 s
- Time to NSR ([8]; Animal 004, dose 0.75 mg/kg): 23 s
- Time to NSR ([8]; Animal 005, dose 0.75 mg/kg): 62 s
- Time to NSR ([8]; Animal 006, dose 1.0 (0.75 + 0.25) mg/kg): 83 s
- effects in BP, VR and LV dP/dtmax upon conversion, IV vs IT ([8]; IV compared with IT administration): greater effects in BP, VR and LV dP/dtmax
- mean arterial pressure ([9]; IT 0.75 mg/kg, baseline 111±3.6 mmHg, p=0.9112): not significantly altered
- heart rate ([9]; IT 0.75 mg/kg, baseline 111±6.4 bpm, p=0.9970): not significantly altered
- PR interval ([9]; IT 0.75 mg/kg, baseline 130±5.3 ms, p=0.9351): not significantly changed
- JTc interval ([9]; IT 0.75 mg/kg, baseline 354±12.0 ms, p=0.7605): not significantly changed
- QTc interval ([9]; IT 0.75 mg/kg, baseline 435±12.9 ms, p=0.5505): not significantly changed
- mean arterial pressure ([9]; IT 1.5 mg/kg, baseline 108±9.4 mmHg, p=0.9894): not significantly altered
- heart rate ([9]; IT 1.5 mg/kg, baseline 118±13.2 bpm, p=0.9999): not significantly altered
- PR interval ([9]; IT 1.5 mg/kg, baseline 127±2.3 ms, p=0.0819): not significantly changed
- JTc interval ([9]; IT 1.5 mg/kg, baseline 364±11.5 ms, p=0.9968): not significantly changed
- QTc interval ([9]; IT 1.5 mg/kg, baseline 436±7.1 ms, p=0.1510): not significantly changed
- heart rate ([9]; IV 2 mg/kg, baseline 103±1.9 bpm, ANOVA p=0.9936, 30 min): not significantly altered
- mean arterial pressure ([9]; IV 2 mg/kg, baseline 105±6.7 mmHg, p=0.8852): not significantly altered
- PR interval ([9]; IV 2 mg/kg, baseline 127±7.8 ms, p=0.5161): not significantly changed
- JTc interval ([9]; IV 2 mg/kg, baseline 367±7.4 ms, p=0.9686): not significantly changed
- QTc interval ([9]; IV 2 mg/kg, baseline 442±7.9 ms, p=0.35): not significantly changed
